Experimental data taken from patent US20240286998A1, “F[…], ANALOGUES THEREOF, AND METHODS USING SAME” (Saint Joseph's University, priority 2021, published 2024).
Counter-ions that a name gives are not always drawn. Like-named read-outs stand apart in the source and are kept apart here.

Legend:
5-HT1A = 5-HT1A (Homo sapiens (Human), UniProt P08908); assay: 5-HT1A Gi/o-mediated cAMP inhibition, GloSensor assay; assay type: cell-based
5-HT2A = 5-HT2A (Homo sapiens (Human), UniProt P28223); assay: 5-HT2A Gq-mediated calcium flux functional assay; assay type: cell-based
5-HT2B = 5-HT2B (Homo sapiens (Human), UniProt P41595); assay: 5-HT2B Gq-mediated calcium flux functional assay; assay type: cell-based
5-HT2B, sequence (P41595 whole entry): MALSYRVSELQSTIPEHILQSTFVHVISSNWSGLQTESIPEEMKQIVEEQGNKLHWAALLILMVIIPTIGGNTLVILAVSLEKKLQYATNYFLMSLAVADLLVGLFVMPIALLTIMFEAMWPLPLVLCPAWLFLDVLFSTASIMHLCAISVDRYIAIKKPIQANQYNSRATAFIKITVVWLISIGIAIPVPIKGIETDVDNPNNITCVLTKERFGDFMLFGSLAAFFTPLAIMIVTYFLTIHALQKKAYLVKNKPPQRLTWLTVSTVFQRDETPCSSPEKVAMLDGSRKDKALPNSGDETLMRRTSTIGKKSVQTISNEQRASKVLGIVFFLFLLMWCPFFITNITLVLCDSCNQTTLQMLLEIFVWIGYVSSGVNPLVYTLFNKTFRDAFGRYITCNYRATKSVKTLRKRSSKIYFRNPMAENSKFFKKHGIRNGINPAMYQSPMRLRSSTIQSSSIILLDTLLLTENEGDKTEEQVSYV

Serotonin 5-HT2A (human) = Serotonin 5-HT2A (human) (Homo sapiens (Human), UniProt P28223); assay: 5-HT2A receptor binding, [3H]-ketanserin competition in membrane fractions; conditions: for 5-HT2A pKi ± SEM: 1 nM [3H]-ketanserin, Cheng-Prusoff, N=1-3
5-HT2C = 5-HT2C (Homo sapiens (Human), UniProt P28335); assay: 5-HT2C Gq-mediated calcium flux functional assay; assay type: cell-based
5-HT2C, sequence (P28335 whole entry, looked up): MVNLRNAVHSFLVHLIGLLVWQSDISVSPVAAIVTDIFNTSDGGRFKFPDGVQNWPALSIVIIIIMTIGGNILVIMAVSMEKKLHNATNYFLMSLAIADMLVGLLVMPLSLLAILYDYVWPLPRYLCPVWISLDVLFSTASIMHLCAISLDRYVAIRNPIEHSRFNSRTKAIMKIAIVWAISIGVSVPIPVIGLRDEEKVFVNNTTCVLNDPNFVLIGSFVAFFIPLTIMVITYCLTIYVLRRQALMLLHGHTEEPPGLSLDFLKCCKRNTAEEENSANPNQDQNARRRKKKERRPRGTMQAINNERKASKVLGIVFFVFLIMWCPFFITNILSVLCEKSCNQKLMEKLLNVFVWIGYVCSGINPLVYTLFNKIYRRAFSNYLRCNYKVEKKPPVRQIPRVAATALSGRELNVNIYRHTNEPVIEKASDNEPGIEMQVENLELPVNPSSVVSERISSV

[1] = cAMP inhibition, 0.2 μM isoproterenol, IA = Inactive

For `CCN(C)CC(=O)c1c[nH]c2ccc(F)cc12`, the melting point was 160.1 to 164.8 °C.
For `CC(C)N(CCc1c[nH]c2ccc(F)cc12)C1CCC1` (as salt: hydrochloride) [compound 40, N-(2-(5-fluoro-1H-indol-3-yl)ethyl)-N-isopropylcyclobutanamine], the melting point was 191.6 to 193 °C.
For `C=CCN(CC)CCc1c[nH]c2ccc(F)cc12` [compound 36, N-ethyl-N-(2-(5-fluoro-1H-indol-3-yl)ethyl)prop-2-en-1-amine], the EC50 (5-HT1A) was 0.0562 µM, the “5-HT1A-cAMP Emax (% 5-HT)” value (5-HT1A; [1]) was 98.4 ± 1.5 % 5-HT and the EC50 (5-HT2A) was 0.0012 µM. For the same compound, the “5-HT2A-Ca2+ FLUX Emax (% 5-HT)” value (5-HT2A; IA = Inactive, N=1-3) was 104.8 ± 2.0 % 5-HT, the EC50 (5-HT2B) was 0.00174 µM and the “5-HT2B-Ca2+ FLUX Emax (% 5-HT)” value (5-HT2B; IA = Inactive, N=1-3) was 104.5 ± 2.0 % 5-HT. The “5-HT2A pKi ± SEM” value (Serotonin 5-HT2A (human)) was 6.13 ± 0.08, the EC50 (5-HT2C) was 0.017 µM and the “5-HT2C-Ca2+ FLUX Emax (% 5-HT)” value (5-HT2C; IA = Inactive, N=1-3) was 101.5 ± 1.9 % 5-HT.
In the case of `CCCN(CCC)CCc1c[nH]c2ccc(F)cc12` (as salt: HCl) [Example 5, N-(2-(5-fluoro-1H-indol-3-yl)ethyl)-N-propylpropan-1-amine], the melting point is reported as 187.5 to 188 °C.
Work on `C=CCN(CCC)CCc1c[nH]c2ccc(F)cc12` (as salt: salt) [compound 35, N-(2-(5-fluoro-1H-indol-3-yl)ethyl)-N-propylprop-2-en-1-amine] yielded a melting point of 175.1 to 177.2 °C.
In the case of `CC(CN)c1c[nH]c2ccc(F)cc12` (centres unmarked) [compound 187, 2-(5-fluoro-1H-indol-3-yl)propan-1-amine], the EC50 (5-HT1A) is reported as 0.933 µM, the “5-HT1A-cAMP Emax (% 5-HT)” value (5-HT1A; [1]) is reported as 88.5 ± 2.8 % 5-HT and the “5-HT2A-Ca2+ FLUX Emax (% 5-HT)” value (5-HT2A; IA = Inactive, N=1-3) is reported as 90.7 ± 2.5 % 5-HT. For the same compound, the EC50 (5-HT2A; IA = Inactive, N=1-3, read-out: 5-HT2A-Ca2+ FLUX pEC50 (converted)) was 0.0363 µM, the “5-HT2B-Ca2+ FLUX Emax (% 5-HT)” value (5-HT2B; IA = Inactive, N=1-3) was 89.0 ± 1.4 % 5-HT and the EC50 (5-HT2B; IA = Inactive, N=1-3, read-out: 5-HT2B-Ca2+ FLUX pEC50 (converted)) was 0.00126 µM. The “5-HT2A pKi ± SEM” value (Serotonin 5-HT2A (human)) was 5.41, the “5-HT2C-Ca2+ FLUX Emax (% 5-HT)” value (5-HT2C; IA = Inactive, N=1-3) was 93.6 ± 0.9 % 5-HT and the EC50 (5-HT2C; IA = Inactive, N=1-3, read-out: 5-HT2C-Ca2+ FLUX pEC50 (converted)) was 0.0186 µM.
In the case of `CC(C)N(C)CCc1c[nH]c2ccc(F)cc12` [Example 2, N-(2-(5-fluoro-1H-indol-3-yl)ethyl)-N-methylpropan-2-amine], the EC50 (5-HT1A) is reported as 1.82 µM, the “5-HT1A-cAMP Emax (% 5-HT)” value (5-HT1A; [1]) is reported as 93.2 ± 4.7 % 5-HT and the EC50 (5-HT2A) is reported as 0.00195 µM. For the same compound, the “5-HT2A-Ca2+ FLUX Emax (% 5-HT)” value (5-HT2A; IA = Inactive, N=1-3) was 95.1 ± 0.8 % 5-HT, the EC50 (5-HT2B) was 0.00331 µM and the “5-HT2B-Ca2+ FLUX Emax (% 5-HT)” value (5-HT2B; IA = Inactive, N=1-3) was 68.6 ± 1.7 % 5-HT. The “5-HT2A pKi ± SEM” value (Serotonin 5-HT2A (human)) was 6.36 ± 0.003, the EC50 (5-HT2C) was 0.0219 µM and the “5-HT2C-Ca2+ FLUX Emax (% 5-HT)” value (5-HT2C; IA = Inactive, N=1-3) was 64.6 ± 1.7 % 5-HT.
In the case of `CCC(C)N(CCc1c[nH]c2ccc(F)cc12)C(C)C` (centres unmarked) [compound 32, N-(2-(5-fluoro-1H-indol-3-yl)ethyl)-N-isopropylbutan-2-amine], the EC50 (5-HT1A) is reported as 1.26 µM, the “5-HT1A-cAMP Emax (% 5-HT)” value (5-HT1A; [1]) is reported as 88.5 ± 2.8 % 5-HT and the EC50 (5-HT2A) is reported as 0.00112 µM. The “5-HT2A-Ca2+ FLUX Emax (% 5-HT)” value (5-HT2A; IA = Inactive, N=1-3) was 106.8 ± 1.7 % 5-HT, the EC50 (5-HT2B) was 0.000955 µM and the “5-HT2B-Ca2+ FLUX Emax (% 5-HT)” value (5-HT2B; IA = Inactive, N=1-3) was 108.0 ± 1.8 % 5-HT. The “5-HT2A pKi ± SEM” value (Serotonin 5-HT2A (human)) was 5.86 ± 0.16, the EC50 (5-HT2C) was 0.0646 µM and the “5-HT2C-Ca2+ FLUX Emax (% 5-HT)” value (5-HT2C; IA = Inactive, N=1-3) was 101.5 ± 2.7 % 5-HT.
Compound `CCC(C)N(CCc1c[nH]c2ccc(F)cc12)C(C)C` (centres unmarked) (as salt: HCl) [compound 32, N-(2-(5-fluoro-1H-indol-3-yl)ethyl)-N-isopropylbutan-2-amine] has a melting point of 193.7 to 195 °C.
`C=CCN(CCc1c[nH]c2ccc(F)cc12)C(C)C` (as salt: HCl) [Example 11, N-(2-(5-fluoro-1H-indol-3-yl)ethyl)-N-isopropylprop-2-en-1-amine] gave a melting point of 132 to 134 °C.
Work on `CN(CCc1c[nH]c2ccc(F)cc12)C1CSC1` (as salt: HCl) [compound 20, N-(2-(5-fluoro-1H-indol-3-yl)ethyl)-N-methylthietan-3-amine] yielded a melting point of 221 to 223.3 °C.
Compound `CCCN(CCc1c[nH]c2ccc(F)cc12)C(C)C` (as salt: HCl) [Example 4, N-(2-(5-fluoro-1H-indol-3-yl)ethyl)-N-isopropylpropan-1-amine] has a melting point of 155.8 to 158 °C.
In the case of `CN(C)CCc1c[nH]c2ccc(F)cc12` [Compound 5-F-DMT], the “5-HT1A-cAMP Emax (% 5-HT)” value (5-HT1A; [1]) is reported as 94.2 ± 3.4 % 5-HT, the “5-HT1A-cAMP pEC50” value (5-HT1A; [1]) is reported as 6.69 ± 0.08 and the “5-HT2A-Ca2+ FLUX Emax (% 5-HT)” value (5-HT2A; IA = Inactive, N=1-3) is reported as 96.6 ± 1.0 % 5-HT. For the same compound, the “5-HT2A-Ca2+ FLUX pEC50” value (5-HT2A; IA = Inactive, N=1-3) was 8.70 ± 0.03, the “5-HT2B-Ca2+ FLUX Emax (% 5-HT)” value (5-HT2B; IA = Inactive, N=1-3) was 61.1 ± 2.0 % 5-HT and the “5-HT2B-Ca2+ FLUX pEC50” value (5-HT2B; IA = Inactive, N=1-3) was 8.70 ± 0.11. For the same compound, the “5-HT2A pKi ± SEM” value (Serotonin 5-HT2A (human)) was 6.65, the “5-HT2C-Ca2+ FLUX Emax (% 5-HT)” value (5-HT2C; IA = Inactive, N=1-3) was 100.3 ± 1.8 % 5-HT and the “5-HT2C-Ca2+ FLUX pEC50” value (5-HT2C; IA = Inactive, N=1-3) was 8.8 ± 0.06.
`C=CCN(CCc1c[nH]c2ccc(F)cc12)C(C)CC` (centres unmarked) (as salt: HCl) [compound 16, N-allyl-N-(2-(5-fluoro-1H-indol-3-yl)ethyl)butan-2-amine] showed a melting point of 157 to 161.8 °C.
With `C=CCN(CC)CCc1c[nH]c2ccc(F)cc12` (as salt: hydrochloride) [compound 36, N-ethyl-N-(2-(5-fluoro-1H-indol-3-yl)ethyl)prop-2-en-1-amine] the melting point was 123.7 to 128.5 °C.
With `CCCN(CC)CCc1c[nH]c2ccc(F)cc12` [Example 6, N-ethyl-N-(2-(5-fluoro-1H-indol-3-yl)ethyl)propan-1-amine] the EC50 (5-HT1A) was 0.049 µM, the “5-HT1A-cAMP Emax (% 5-HT)” value (5-HT1A; [1]) was 90.5 ± 1.8 % 5-HT and the EC50 (5-HT2A) was 0.000776 µM. For the same compound, the “5-HT2A-Ca2+ FLUX Emax (% 5-HT)” value (5-HT2A; IA = Inactive, N=1-3) was 103.5 ± 0.8 % 5-HT, the EC50 (5-HT2B) was 0.0011 µM and the “5-HT2B-Ca2+ FLUX Emax (% 5-HT)” value (5-HT2B; IA = Inactive, N=1-3) was 101.2 ± 0.7 % 5-HT. The “5-HT2A pKi ± SEM” value (Serotonin 5-HT2A (human)) was 6.06 ± 0.13, the EC50 (5-HT2C) was 0.00178 µM and the “5-HT2C-Ca2+ FLUX Emax (% 5-HT)” value (5-HT2C; IA = Inactive, N=1-3) was 111.7 ± 2.5 % 5-HT.
With `C=CCN(CCc1c[nH]c2ccc(F)cc12)C(C)CC` (centres unmarked) [compound 16, N-allyl-N-(2-(5-fluoro-1H-indol-3-yl)ethyl)butan-2-amine] the EC50 (5-HT1A) was 0.166 µM, the “5-HT1A-cAMP Emax (% 5-HT)” value (5-HT1A; [1]) was 94.2 ± 2.2 % 5-HT and the EC50 (5-HT2A) was 0.000871 µM. For the same compound, the “5-HT2A-Ca2+ FLUX Emax (% 5-HT)” value (5-HT2A; IA = Inactive, N=1-3) was 103.4 ± 1.8 % 5-HT, the EC50 (5-HT2B) was 0.00209 µM and the “5-HT2B-Ca2+ FLUX Emax (% 5-HT)” value (5-HT2B; IA = Inactive, N=1-3) was 97.4 ± 1.7 % 5-HT. For the same compound, the Ki (Serotonin 5-HT2A (human)) was 1.66 µM, the EC50 (5-HT2C) was 0.049 µM and the “5-HT2C-Ca2+ FLUX Emax (% 5-HT)” value (5-HT2C; IA = Inactive, N=1-3) was 84.3 ± 3.4 % 5-HT.
With `CCCN(CCc1c[nH]c2c(F)cccc12)C1CCC1` (as salt: hydrochloride) [compound 162, N-(2-(7-fluoro-1H-indol-3-yl)ethyl)-N-propylcyclobutanamine] the melting point was 231.7 to 237.2 °C.
